In publication PMC6608980, “The lectin-specific activity of Toxoplasma gondii microneme proteins 1 and 4 binds Toll-like receptor 2 and 4 N-glycans to regulate innate immune priming” (PLoS Pathogens, 2019):

Legend:
[1] = molecular target: T1, rMIC4 (Toxoplasma gondii, UniProt Q9XZH7); assay: microplate sugar-inhibition of binding to coated asialofetuin, antibody detection; conditions: 25 °C, 2 h; competes with asialofetuin glycans at the carbohydrate-recognition domain
T1 construct: gene MIC4

[2] = molecular target: T2, rMIC1 (Toxoplasma gondii, UniProt A0A125YMF8); assay: microplate sugar-inhibition of binding to coated fetuin, antibody detection; conditions: 25 °C, 2 h; competes with fetuin glycans at the carbohydrate-recognition domain
T2 construct: gene MIC1
T2 sequence (A0A125YMF8 entry or part of it): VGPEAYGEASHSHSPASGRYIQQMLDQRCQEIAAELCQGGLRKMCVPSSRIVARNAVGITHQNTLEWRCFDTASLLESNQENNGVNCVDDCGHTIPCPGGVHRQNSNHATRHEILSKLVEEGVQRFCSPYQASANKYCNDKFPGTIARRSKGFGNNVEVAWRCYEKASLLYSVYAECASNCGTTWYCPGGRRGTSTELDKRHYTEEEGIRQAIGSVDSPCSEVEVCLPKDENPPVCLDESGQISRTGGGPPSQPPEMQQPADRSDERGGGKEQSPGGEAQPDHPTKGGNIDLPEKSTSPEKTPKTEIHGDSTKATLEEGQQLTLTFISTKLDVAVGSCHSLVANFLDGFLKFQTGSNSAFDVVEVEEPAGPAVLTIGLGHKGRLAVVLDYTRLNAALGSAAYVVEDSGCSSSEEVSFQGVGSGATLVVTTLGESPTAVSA

T1 sequence (Q9XZH7 26-580): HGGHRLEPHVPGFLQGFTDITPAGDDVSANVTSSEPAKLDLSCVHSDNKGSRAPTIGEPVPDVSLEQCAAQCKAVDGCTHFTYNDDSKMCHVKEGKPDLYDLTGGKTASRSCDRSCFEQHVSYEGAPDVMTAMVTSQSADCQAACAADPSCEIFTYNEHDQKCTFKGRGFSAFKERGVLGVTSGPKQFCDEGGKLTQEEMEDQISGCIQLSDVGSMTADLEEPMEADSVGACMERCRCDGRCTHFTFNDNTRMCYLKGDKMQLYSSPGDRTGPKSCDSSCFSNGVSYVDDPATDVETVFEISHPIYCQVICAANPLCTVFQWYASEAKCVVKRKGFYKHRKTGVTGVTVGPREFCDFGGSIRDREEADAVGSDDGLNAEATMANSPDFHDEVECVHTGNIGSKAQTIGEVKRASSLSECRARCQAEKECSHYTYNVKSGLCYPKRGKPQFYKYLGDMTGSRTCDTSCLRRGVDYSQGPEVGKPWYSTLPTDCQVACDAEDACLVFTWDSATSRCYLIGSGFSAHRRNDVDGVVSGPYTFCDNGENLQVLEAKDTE

Structure (SMILES): CC(=O)N[C@H]1C(O)O[C@H](CO)[C@@H](O)[C@@H]1O[C@@H]1O[C@H](CO)[C@H](O)[C@H](O)[C@H]1O (some centres unmarked) [lacto-N-biose]
- microplate sugar-inhibition of binding to coated asialofetuin, antibody detectio [1]: lacto-N-biose inhibited the binding of rMIC4 to asialofetuin

Structure (SMILES): CC(=O)N[C@H]1[C@H]([C@H](O)[C@H](O)CO)O[C@@](O[C@H]2[C@@H](O)[C@@H](CO)O[C@@H](O[C@H]3[C@H](O)[C@@H](O)C(O)O[C@@H]3CO)[C@@H]2O)(C(=O)O)C[C@@H]1O (stereo partly drawn) [α(2–3)-sialyllactose]
- microplate sugar-inhibition of binding to coated fetuin, antibody detection [2]: Sialyllactose inhibited the binding of rMIC1 to fetuin
